Results: ChEMBL document CHEMBL3525964 (Drug Metab Dispos, 2012)

Assays:
Plasma = assay: Drug level in human plasma treated with [14C}LY2452473 at 15 mg, po after 2 hrs administered as single dose by HPLC analysis; format: ADME, organism-based; details: in vivo
Cytochrome P450 2J2 [1] = molecular target: T1, Cytochrome P450 2J2 (Homo sapiens, UniProt P51589); assay: Fraction metabolized assessed as human recombinant CYP2J2-mediated drug depletion by LC-MS/MS method relative to total normalized intrinsic clearance; format: ADME; details: recombinant enzyme
T1 sequence (P51589 whole entry): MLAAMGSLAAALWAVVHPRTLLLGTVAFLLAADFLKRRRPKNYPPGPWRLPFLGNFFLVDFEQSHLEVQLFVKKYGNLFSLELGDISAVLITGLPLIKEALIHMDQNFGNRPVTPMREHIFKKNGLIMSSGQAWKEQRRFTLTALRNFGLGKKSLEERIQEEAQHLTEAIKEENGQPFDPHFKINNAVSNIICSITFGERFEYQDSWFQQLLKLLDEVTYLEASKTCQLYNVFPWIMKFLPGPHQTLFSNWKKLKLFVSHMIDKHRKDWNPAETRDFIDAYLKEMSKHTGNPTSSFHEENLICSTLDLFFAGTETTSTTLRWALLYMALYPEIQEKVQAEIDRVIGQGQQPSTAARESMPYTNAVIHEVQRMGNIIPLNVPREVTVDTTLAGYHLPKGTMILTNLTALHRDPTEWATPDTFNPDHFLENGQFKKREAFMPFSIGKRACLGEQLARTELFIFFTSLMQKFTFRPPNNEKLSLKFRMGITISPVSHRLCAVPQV

Homo sapiens [2] = assay: AUC (0 to infinity) in human at 15 mg, po administered as single dose by liquid scintillation counting method; format: ADME, organism-based, Plasma; set-up: dose 15 mg, time infinity, route oral; details: in vivo
Cytochrome P450 3A4 [3] = molecular target: T2, Cytochrome P450 3A4 (Homo sapiens, UniProt P08684); assay: Intrinsic clearance assessed as human recombinant CYP3A4-mediated drug depletion per pmol protein by LC-MS/MS method; format: ADME; details: recombinant enzyme
T2 sequence (P08684 whole entry): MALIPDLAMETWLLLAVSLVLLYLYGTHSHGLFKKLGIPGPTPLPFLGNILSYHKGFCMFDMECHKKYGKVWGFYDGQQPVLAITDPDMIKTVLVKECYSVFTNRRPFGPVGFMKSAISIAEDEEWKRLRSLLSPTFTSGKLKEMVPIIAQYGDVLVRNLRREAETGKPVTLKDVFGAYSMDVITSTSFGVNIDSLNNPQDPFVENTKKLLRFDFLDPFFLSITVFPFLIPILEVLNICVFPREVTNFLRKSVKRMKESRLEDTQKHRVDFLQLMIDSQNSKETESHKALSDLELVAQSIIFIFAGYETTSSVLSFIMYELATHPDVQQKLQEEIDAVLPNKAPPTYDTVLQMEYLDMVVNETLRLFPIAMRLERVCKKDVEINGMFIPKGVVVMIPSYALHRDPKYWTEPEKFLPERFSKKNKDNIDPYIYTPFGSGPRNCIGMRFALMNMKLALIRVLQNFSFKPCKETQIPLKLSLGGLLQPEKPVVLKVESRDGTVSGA

Cytochrome P450 1A2 = molecular target: T3, Cytochrome P450 1A2 (Homo sapiens, UniProt P05177); assay: Drug metabolism assessed as human recombinant CYP1A2-mediated drug depletion by LC-MS/MS method; format: ADME; details: recombinant enzyme
T3 sequence (P05177 whole entry): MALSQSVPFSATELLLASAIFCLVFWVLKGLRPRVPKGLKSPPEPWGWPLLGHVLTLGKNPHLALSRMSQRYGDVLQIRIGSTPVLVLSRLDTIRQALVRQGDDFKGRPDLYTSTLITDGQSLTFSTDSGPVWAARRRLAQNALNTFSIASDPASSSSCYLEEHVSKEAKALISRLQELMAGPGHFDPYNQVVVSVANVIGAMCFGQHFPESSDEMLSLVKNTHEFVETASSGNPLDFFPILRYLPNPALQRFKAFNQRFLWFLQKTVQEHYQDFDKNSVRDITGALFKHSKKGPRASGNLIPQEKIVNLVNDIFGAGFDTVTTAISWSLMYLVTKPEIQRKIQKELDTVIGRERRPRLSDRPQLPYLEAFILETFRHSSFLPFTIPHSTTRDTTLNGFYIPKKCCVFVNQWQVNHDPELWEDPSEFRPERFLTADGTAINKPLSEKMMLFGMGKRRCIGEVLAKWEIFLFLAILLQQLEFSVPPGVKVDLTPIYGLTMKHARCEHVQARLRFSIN

Cytochrome P450 3A4 [4] = molecular target: T2, Cytochrome P450 3A4; assay: Drug metabolism in human liver microsomes assessed as CYP3A4-mediated drug depletion in presence of CYP3A4 inhibitor ketoconazole by LC-MS/MS method; format: ADME
Homo sapiens [5] = assay: Apparent total body clearance in human at 15 mg, po administered as single dose by liquid scintillation counting method; format: ADME, organism-based; details: in vivo
Homo sapiens [6] = assay: Tlast in human at 15 mg, po administered as single dose by liquid scintillation counting method; format: ADME, organism-based; details: in vivo
Cytochrome P450 2B6 = molecular target: T4, Cytochrome P450 2B6 (Homo sapiens, UniProt P20813); assay: Drug metabolism assessed as human recombinant CYP2B6-mediated drug depletion by LC-MS/MS method; format: ADME; details: recombinant enzyme
T4 sequence (P20813 whole entry): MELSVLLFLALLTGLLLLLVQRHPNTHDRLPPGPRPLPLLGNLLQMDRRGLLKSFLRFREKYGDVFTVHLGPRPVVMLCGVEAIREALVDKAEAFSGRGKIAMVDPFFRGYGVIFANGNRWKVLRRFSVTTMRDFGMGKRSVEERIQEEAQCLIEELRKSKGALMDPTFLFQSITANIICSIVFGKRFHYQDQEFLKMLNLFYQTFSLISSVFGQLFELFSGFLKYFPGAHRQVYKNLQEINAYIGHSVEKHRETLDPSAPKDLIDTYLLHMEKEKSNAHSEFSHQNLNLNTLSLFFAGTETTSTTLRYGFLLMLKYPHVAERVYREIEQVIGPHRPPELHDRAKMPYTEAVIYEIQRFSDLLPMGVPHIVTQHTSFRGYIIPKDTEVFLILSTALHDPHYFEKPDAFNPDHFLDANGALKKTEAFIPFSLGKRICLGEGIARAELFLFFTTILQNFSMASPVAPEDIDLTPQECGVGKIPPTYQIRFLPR

Cytochrome P450 2J2 [7] = molecular target: T1, Cytochrome P450 2J2; assay: Normalized intrinsic clearance assessed as human recombinant CYP2J2-mediated drug depletion per pmol protein by LC-MS/MS method; format: ADME; details: recombinant enzyme

Work on CC(C)OC(=O)N[C@H]1Cc2c(n(Cc3ccccn3)c3ccc(C#N)cc23)C1 [LY2452473] yielded a Drug uptake (Plasma) of 72.93%, a Fm (Cytochrome P450 2J2 [1]) of 15% and an AUC (Homo sapiens [2]) of 1330 ng·h/mL. For the same compound, the CL (Cytochrome P450 3A4 [3]) was 0.75 µL/min, the Drug metabolism (Cytochrome P450 1A2) was “metabolite_not_detected” and the Drug metabolism (Cytochrome P450 3A4 [4]) was “metabolite_not_detected”. For the same compound, the CLt/F (Homo sapiens [5]) was 11 L/h, the Tlast (Homo sapiens [6]) was 168 h and the Drug metabolism (Cytochrome P450 2B6) was “metabolite_not_detected”. The CL (Cytochrome P450 2J2 [7]) was 18 µL/min.
